Several values for one entry are separate records, joined by “and”; a condition that tells them apart may be missing. Equal values may be shown once. ± gives the uncertainty stated by the source.
SMILES	viscosity (298.15 K, 101 kPa)	viscosity (303.15 K, 101 kPa)	viscosity (303.15 K, 101.33 kPa)	viscosity (308.15 K, 101.33 kPa)	viscosity (313.15 K, 101 kPa)	viscosity (313.15 K, 101.33 kPa)	viscosity (308.15 K, 100 kPa)	viscosity (313.15 K, 100 kPa)	viscosity (293.15 K, 100 kPa)	viscosity (303.15 K, 100 kPa)	viscosity (298.15 K, 100 kPa)	other results
CNC=O	1.746 ± 0.028 mPa·s	1.585 ± 0.074 mPa·s and 1.597 ± 0.015 mPa·s and 1.58 ± 0.025 mPa·s	1.586 ± 0.015 mPa·s	1.463 ± 0.013 mPa·s	1.352 ± 0.065 mPa·s and 1.361 ± 0.013 mPa·s and 1.306 ± 0.021 mPa·s	1.352 ± 0.013 mPa·s						viscosity (298.15 K, 101.3 kPa): 1.695 ± 0.024 mPa·s; viscosity (303 K, 101 kPa): 1.475 ± 0.014 mPa·s; viscosity (308.15 K, 101 kPa): 1.462 ± 0.069 mPa·s and 1.473 ± 0.014 mPa·s and 1.434 ± 0.023 mPa·s; viscosity (318.15 K, 101 kPa): 1.255 ± 0.06 mPa·s and 1.263 ± 0.012 mPa·s and 1.191 ± 0.02 mPa·s; viscosity (318.15 K, 101.33 kPa): 1.256 ± 0.012 mPa·s; viscosity (323.15 K, 101 kPa): 1.175 ± 0.011 mPa·s; viscosity (323.15 K, 101.33 kPa): 1.167 ± 0.011 mPa·s
CCNCCO		9.639 ± 0.16 mPa·s	10.16 ± 0.22 mPa·s	8.223 ± 0.17 mPa·s	6.419 ± 0.11 mPa·s	6.748 ± 0.14 mPa·s						viscosity (293.15 K, 101.33 kPa): 16.27 ± 0.35 mPa·s; viscosity (298.15 K, 101.33 kPa): 12.75 ± 0.27 mPa·s; viscosity (308.15 K, 101 kPa): 7.83 ± 0.13 mPa·s; viscosity (318.15 K, 101 kPa): 5.358 ± 0.087 mPa·s; viscosity (318.15 K, 101.33 kPa): 5.608 ± 0.12 mPa·s; viscosity (323.15 K, 101 kPa): 4.517 ± 0.074 mPa·s; viscosity (323.15 K, 101.33 kPa): 4.714 ± 0.1 mPa·s
O=C(OCc1ccccc1)c1ccccc1	8.454 ± 0.23 mPa·s and 8.45 ± 0.23 mPa·s					5.04 ± 0.05 mPa·s						
COC(=O)c1ccccc1	1.823 ± 0.057 mPa·s and 1.825 ± 0.15 mPa·s	1.656 ± 0.14 mPa·s and 1.583 ± 0.018 mPa·s	1.523 ± 0.012 mPa·s and 1.656 ± 0.021 mPa·s and 1.638 ± 0.02 mPa·s	1.521 ± 0.092 mPa·s and 1.491 ± 0.018 mPa·s	1.359 ± 0.014 mPa·s and 1.371 ± 0.034 mPa·s	1.238 ± 0.01 mPa·s and 1.398 ± 0.085 mPa·s and 1.365 ± 0.017 mPa·s	1.517 ± 0.062 mPa·s	1.373 ± 0.056 mPa·s				viscosity (293.15 K, 101.33 kPa): 1.879 ± 0.015 mPa·s and 2.036 ± 0.12 mPa·s; viscosity (298.15 K, 101.3 kPa): 1.918 ± 0.024 mPa·s; viscosity (298.15 K, 101.33 kPa): 1.836 ± 0.11 mPa·s and 1.825 ± 0.023 mPa·s and 1.81 ± 0.022 mPa·s; viscosity (303.15 K, 101.3 kPa): 1.778 ± 0.022 mPa·s; viscosity (308.15 K, 101 kPa): 1.501 ± 0.037 mPa·s and 1.504 ± 0.047 mPa·s; viscosity (308.15 K, 101.3 kPa): 1.663 ± 0.021 mPa·s; viscosity (313.15 K, 101.3 kPa): 1.402 ± 0.018 mPa·s; viscosity (318.15 K, 101 kPa): 1.282 ± 0.032 mPa·s and 1.27 ± 0.04 mPa·s; viscosity (318.15 K, 101.33 kPa): 1.253 ± 0.016 mPa·s; viscosity (323.15 K, 101 kPa): 1.222 ± 0.03 mPa·s; viscosity (323.15 K, 101.33 kPa): 1.016 ± 0.009 mPa·s
CCCCNCCO			12.23 ± 0.26 mPa·s	9.869 ± 0.21 mPa·s		8.07 ± 0.17 mPa·s						viscosity (293.15 K, 101.33 kPa): 19.67 ± 0.42 mPa·s; viscosity (298.15 K, 101.33 kPa): 15.39 ± 0.33 mPa·s; viscosity (318.15 K, 101.33 kPa): 6.68 ± 0.14 mPa·s; viscosity (323.15 K, 101.33 kPa): 5.591 ± 0.12 mPa·s
C/C=C/C(=O)OCC	0.7576 ± 0.0085 mPa·s	0.7053 ± 0.0079 mPa·s			0.6154 ± 0.007 mPa·s							viscosity (293.15 K, 101 kPa): 0.8184 ± 0.0091 mPa·s; viscosity (323.15 K, 101 kPa): 0.5471 ± 0.0063 mPa·s
CCCCCC(C)C								0.393 ± 0.006 mPa·s	0.5 ± 0.007 mPa·s	0.444 ± 0.007 mPa·s		viscosity (323.15 K, 100 kPa): 0.355 ± 0.006 mPa·s
CCCC[n+]1ccn(C)c1.O=[N+]([O-])[O-]	158.8 ± 77 mPa·s	121.2 ± 45 mPa·s			74.19 ± 12 mPa·s							viscosity (293.15 K, 101 kPa): 212.1 mPa·s; viscosity (308.15 K, 101 kPa): 94.07 ± 25 mPa·s; viscosity (318.15 K, 101 kPa): 59.38 ± 4.4 mPa·s; viscosity (323.15 K, 101 kPa): 48.18 ± 4.7 mPa·s
CCCC[n+]1ccn(C)c1C.F[B-](F)(F)F	573 ± 51 mPa·s											
CC[N+]1(C)CCCC1.COP(=O)([O-])OC							93.55 ± 5.8 mPa·s	72.82 ± 4.5 mPa·s	227.7 ± 15 mPa·s	123.5 ± 7.8 mPa·s	169.4 ± 11 mPa·s	viscosity (318.15 K, 100 kPa): 56.38 ± 3.4 mPa·s; viscosity (323.15 K, 100 kPa): 45.1 ± 2.8 mPa·s
CCOC(=O)CCl			1.007 ± 0.02 mPa·s and 1.007 ± 0.025 mPa·s	0.933 ± 0.017 mPa·s and 0.933 ± 0.022 mPa·s								viscosity (303.15 K, 101.3 kPa): 1.013 ± 0.013 mPa·s and 1.013 ± 0.009 mPa·s; viscosity (308.15 K, 101.3 kPa): 0.93 ± 0.012 mPa·s and 0.93 ± 0.009 mPa·s
C[N+](C)(C)CCO.O=C([O-])c1ccccn1												viscosity (300 K, 100 kPa): 558.5 ± 54 mPa·s
C=CC(=O)OC(C)(C)C	0.8309 ± 0.034 mPa·s	0.76 ± 0.031 mPa·s			0.6485 ± 0.026 mPa·s		0.701 ± 0.011 mPa·s	0.6485 ± 0.011 mPa·s	0.9072 ± 0.012 mPa·s	0.76 ± 0.011 mPa·s	0.8309 ± 0.011 mPa·s	viscosity (293.15 K, 101 kPa): 0.9072 ± 0.037 mPa·s; viscosity (308.15 K, 101 kPa): 0.701 ± 0.029 mPa·s; viscosity (318.15 K, 100 kPa): 0.6034 ± 0.011 mPa·s; viscosity (318.15 K, 101 kPa): 0.6034 ± 0.025 mPa·s
CCCC[n+]1ccn(C)c1.N#C[C-](C#N)C#N							18.98 ± 0.97 mPa·s	15.99 ± 0.82 mPa·s	34.9 ± 1.8 mPa·s	22.85 ± 1.2 mPa·s	27.97 ± 1.4 mPa·s	viscosity (318.15 K, 100 kPa): 13.66 ± 0.7 mPa·s; viscosity (323.15 K, 100 kPa): 11.8 ± 0.6 mPa·s
[Cl-].[Cl-].[Cl-].[Cl-].[Ti+4]					0.702 ± 0.012 mPa·s							viscosity (293.15 K, 101 kPa): 0.827 ± 0.014 mPa·s
C[N+](C)(C)C.[OH-]							2.62 ± 0.06 mPa·s	2.56 ± 0.05 mPa·s		2.71 ± 0.06 mPa·s	2.77 ± 0.06 mPa·s	
CC(C)c1cc(C(C)C)cc(C(C)C)c1												viscosity (293.15 K, 102 kPa): 4.12 ± 0.07 mPa·s; viscosity (303.15 K, 102 kPa): 3.05 ± 0.06 mPa·s; viscosity (313.15 K, 102 kPa): 2.35 ± 0.05 mPa·s; viscosity (323.15 K, 102 kPa): 1.86 ± 0.04 mPa·s
CCCCCC[N+]1(C)CCCC1.O=S(=O)([N-]S(=O)(=O)C(F)(F)F)C(F)(F)F					52.7 ± 5.4 mPa·s		63.07 ± 1.3 mPa·s	51.01 ± 1.1 mPa·s	136.2 ± 3.8 mPa·s	79.59 ± 1.8 mPa·s	102.8 ± 2.5 mPa·s	viscosity (295.2 K, 101.3 kPa): 119.8 ± 17 mPa·s; viscosity (300.2 K, 101.3 kPa): 96.8 ± 11 mPa·s; viscosity (305.2 K, 101.3 kPa): 79.6 ± 6.4 mPa·s; viscosity (310.2 K, 101.3 kPa): 64.8 ± 3.3 mPa·s; viscosity (315.2 K, 101.3 kPa): 54.2 ± 1.9 mPa·s; viscosity (320.2 K, 101.3 kPa): 45.9 ± 2.2 mPa·s
c1ccc2c(c1)CCCC2	1.985 ± 0.026 mPa·s		1.778 ± 0.011 mPa·s	1.612 ± 0.01 mPa·s		1.473 ± 0.009 mPa·s	1.654 ± 0.035 mPa·s and 1.66 ± 0.07 mPa·s	1.521 ± 0.032 mPa·s and 1.52 ± 0.06 mPa·s	2.195 ± 0.047 mPa·s and 2.2 ± 0.09 mPa·s	1.807 ± 0.038 mPa·s and 1.81 ± 0.07 mPa·s	1.985 ± 0.042 mPa·s and 1.99 ± 0.08 mPa·s	viscosity (293.15 K, 102 kPa): 2.25 ± 0.03 mPa·s; viscosity (298.15 K, 101.33 kPa): 1.968 ± 0.012 mPa·s; viscosity (303.15 K, 102 kPa): 1.85 ± 0.02 mPa·s; viscosity (318.15 K, 100 kPa): 1.403 ± 0.03 mPa·s and 1.4 ± 0.06 mPa·s; viscosity (323.15 K, 100 kPa): 1.301 ± 0.028 mPa·s and 1.3 ± 0.05 mPa·s
